Experimental data as given in patent US20220386582A1, “METHOD AND DEVICE TO TRAP ACARIDS” (DOMOBIOS, priority 2015, published 2022).

Tests used:
[1] = test system: Dermatophagoides pteronyssinus; experiment: Binary choice test in Petri dish, colored felt with attracting agent versus white felt with water; type: in vivo
Protocol: Aim of the experiments: All experiments are tests of binary choice aiming to determine the preference of mites and the place where they prefer to stay (at least for 30 min).
Rearing: The species studied was Dermatophagoides pteronyssinus, a dust mite common in mattresses in Eurasia. Mites are reared in Petri dishes and fed with human skin flakes (skin and whiskers obtained by cleaning electric shavers). All mites were reared together under defined conditions (20° C. and 75% relative humidity). The experiments took place in a room kept at 20° C. and 40% relative humidity.
Materials and methods: A group of mites (20<n<40) was placed in the center of a Petri dish (ø5.5 cm) around which two semi-circles of felt were placed (see FIG. 1). The pieces of felts were 70 mg/cm^2, their thickness was 2 mm. One felt is the control (control felt), for instance impregnated with water; the other felt is the felt with the tested item, for instance the felt that is impregnated with a chemical compound that is tested.
Mites move spontaneously towards one of the two felts.
Observations and counting of mites was made under binocular microscope (magnification 10×). The set-up is illuminated with a cold lamp (KL 1500 LCD, Schott ●), the lighting is symmetric and the light intensity was 50Klux. The experimental conditions were controlled in the room (T° C.: 19-22° C. and RH 40%). […]

[2] = test system: Dermatophagoides pteronyssinus; experiment: Mini-mattress trap: attraction capabilities of attracting solutions sprayed on felt; type: in vivo
Protocol: (§1) Rearing: The species studied were Dermatophagoides pteronyssinus and Dermatophagoides farinae, house dust mite common in mattresses in Eurasia. Mites are reared in Petri dishes and fed with human skin flakes (skin and whiskers obtained by cleaning electric […]). All mites were reared together under defined conditions (20° C. and 75% relative humidity). The experiments took place in a room kept at 20° C. and 40% relative humidity. Aim of the experiments: The aim was to test the trap in condition similar to the conditions that will be met by the user of the trap. Materials and methods: The mattresses were built at a smaller scale (15× reduction) than usual mattresses. These mini-mattresses are made in polyurethane and covered by a cover in cotton. They were infested with mites since at least 3 months. The fabric was a felt of 20 mg/cm^2 and is a rectangle of 10 cm×20 cm. It was placed on the mini-mattress. Then the attracting solution was sprayed on the fabric with a spray bottle. The fabric was left in place on the mattress during one hour. During this time, the mites moved in the felt. It is very difficult to count directly the mites hidden in the mattress and in the fabric. Therefore, we used a Berlèse funnel which is a device that is usually used to separate insects from litter. Here, it was used to separate the mites from their mattress or from the fabric. The Berlèse funnel uses a light bulb to heat and dry the mattress, thus driving the mites downwards through a screen and into a collecting jar containing some food and some water. […] They are attracted by a source of moisture and the smell of food. The mattress or blanket were therefore placed in the funnel (FIG. 2). The mites went downwards in the direction of the jar, then in the jar. The harvest of the jar containing the mites took place after one day. Mites had then 24 hours to migrate to the jar collector. As a substantial proportion of the population is immobile (moulting mites), trapping is less efficient than it would be otherwise and estimate of population size that is trapped are likely to be biased. To avoid this bias and make a proper assessment of the populations in infested mattresses, mattresses were carefully brushed with a soft brush at the end of the manipulation meaning that immobile mites and eggs also fall into the funnel. Fabric was carefully brushed too. The Berlèze funnel was rinsed with ethanol. Thus, mites still on the inner wall of the funnel were driven by ethanol in the jar collector. At the end of the experiment, the jar contained: the food used as attracting to mites, a small amount of water also used for attracting, mites, and ethanol. The jar was emptied into a Petri dish and we counted mites under binocular. Counting of mites was made under binocular microscope (magnification 10×). The set-up is illuminated with a cold lamp (KL 1500 LCD, Schott ●). The felt was sprayed with different attracting compositions: a solution of lavandulol, a solution of Tween 60, a combination of lavandulol and Tween 60, a solution of citral, and the attracting solution commercialized under the brand name Acar'up were compared at various dilutions.

Dermatophagoides farinae = experiment: as above; type: in vivo
Protocol: as §1

mites = details: washing at low temperature, final concentration of 0.03% benzyl benzoate (Bischoff et al 1998); cited from earlier work
[3] = Dilution 10^−6 (* mixture of a lavandulol solution at 10^−6 and a Tween 60 solution at 10^−6)

| Compound | Mean (choice of mites for the tested felt) ([1]; blue felt + 1 μl attracting agent (dil 10^−6) versus white felt + 1 μl H2O, 18 trials) | migration of the mites toward the blue felt ([1]; blue felt in combination with citral) [%] | attraction capabilities, percentage of mites ([2]; Dilution 10^−3) [%] | attraction capabilities, percentage of mites [2, 3] [%] | attraction capabilities, percentage of mites ([2]; Dilution 10^−9) [%] | attraction capabilities, percentage of mites ([2]; Dilution Undiluted) [%] | attraction capabilities, percentage of mites (Dermatophagoides farinae; Dilution 10^−1) [%] | attraction capabilities, percentage of mites (Dermatophagoides farinae; Dilution 10^−3) [%] | attraction capabilities, percentage of mites (Dermatophagoides farinae; [3]) [%] | attraction capabilities, percentage of mites (Dermatophagoides farinae; Dilution 10^−9) [%] | attraction capabilities, percentage of mites (Dermatophagoides farinae; Dilution Undiluted) [%] | mite control in delicate garments (mites) |
| --- | --- | --- | --- | --- | --- | --- | --- | --- | --- | --- | --- | --- |
| CC(C)=CCCC(C)=CC=O [Citral, 3,7-dimethyl-2,6-octadienal, reference compound] | 0.84 | 84 | 23 | 76 | 56 | 3 | 49 | 36 | 48 | 43 | 5 |  |
| O=C(OCc1ccccc1)c1ccccc1 [benzyl benzoate] |  |  |  |  |  |  |  |  |  |  |  | possible to achieve mite control |
| Polyethylene glycol sorbitan monostearate [Tween 60] |  |  | 70 | 78 | 57 | 14 |  | 54 | 81 | 39 | 7 |  |
